Measured values from PubChem BioAssay (NCI).
“And” between values parts separate entries of the source, which are not always exact repeats. Equal values may be shown once.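 Exposure lasted 48 hours, with cells grown in 96-well plates and compounds tested at five concentrations. Abbreviation: GI50, concentration required for 50% inhibition of growth. TGI: total growth inhibition.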 Where a SMILES comes first, the peptide text is derived from it. [ ]: non-standard residue; d: D form. The star is where a group is joined. ξ: configuration not given here. ξF = NC(Cc1ccccc1)C(=O)O; Cbz = O=C(OCc1ccccc1)*; Aib = CC(C)(N)C(=O)O

Assays:
Assay in all cases: inhibition of tumour cell growth, NCI panel, 48 h
MCF7 breast = test system: MCF7 breast
OVCAR-5 ovarian = test system: OVCAR-5 ovarian
OVCAR-3 ovarian = test system: OVCAR-3 ovarian
HT29 colon = test system: HT29 colon
ACHN renal = test system: ACHN renal
DU-145 prostate = test system: DU-145 prostate
U251 CNS = test system: U251 CNS
MALME-3M melanoma = test system: MALME-3M melanoma
NCI-H23 lung = test system: NCI-H23 lung
SK-MEL-2 melanoma = test system: SK-MEL-2 melanoma

Compound	TGI (MCF7 breast)	TGI (OVCAR-5 ovarian)	TGI (OVCAR-3 ovarian)	TGI (HT29 colon)	TGI (ACHN renal) [µM]	TGI (DU-145 prostate) [µM]	TGI (U251 CNS)	TGI (MALME-3M melanoma)	TGI (NCI-H23 lung)	TGI (SK-MEL-2 melanoma)	GI50 (MCF7 breast) [µM]	GI50 (NCI-H23 lung) [µM]	GI50 (OVCAR-5 ovarian) [µM]	GI50 (OVCAR-3 ovarian) [µM]	GI50 (HT29 colon) [µM]	GI50 (ACHN renal) [µM]	GI50 (DU-145 prostate) [µM]	GI50 (U251 CNS) [µM]	GI50 (MALME-3M melanoma) [µM]	GI50 (SK-MEL-2 melanoma) [µM]
CCOC(=O)CNC(=O)C(Cc1ccccc1)NC(=O)C(C)(C)NC(=O)OCc1ccccc1 (stereo unspecified) (Cbz-[Aib]-[ξF]-Gly-OEt)	> 100 µM	> 100 µM	78.2 µM	> 100 µM	> 100	> 100	> 100 µM	36.2 µM	–	–	–	–	–	–	–	–	–	–	–	–
CN(Cc1cn(O)c2nc(=N)nc(N)c-2n1)c1ccc(C(=O)NC23CC4CC(CC(C4)C2)C3)cc1	> 100 µM	> 100 µM	> 100 µM	–	> 100	> 100	> 100 µM	> 100 µM	> 100 µM	> 100 µM	–	–	–	–	–	–	–	–	–	–
CC1(CO)COS(=O)OC1 (stereo unspecified)	> 100 µM	–	> 100 µM	> 100 µM	> 100	> 100	> 100 µM	–	> 100 µM	–	–	–	–	–	–	–	–	–	–	–
COc1cc(/C=N/c2nc3cc4sc(/N=C/c5cc(OC)c(OC)c(OC)c5)nc4cc3s2)cc(OC)c1OC	> 100 µM	> 100 µM	> 100 µM	> 100 µM	> 100	> 100	> 100 µM	> 100 µM	> 100 µM	> 100 µM	–	–	–	–	–	–	–	–	–	–
OCC(O)CNc1ncnc2ccccc12 (stereo unspecified)	> 100 µM	> 100 µM	> 100 µM	> 100 µM	> 100	> 100	> 100 µM	> 100 µM	> 100 µM	> 100 µM	–	–	–	–	–	–	–	–	–	–
COc1ccc(-c2nc3c(nc2-c2ccc(OC)cc2)C(N)=NS(=O)(=O)N3)cc1	–	> 100 µM	> 100 µM	> 100 µM	> 100	–	> 100 µM	> 100 µM	> 100 µM	> 100 µM	–	–	–	–	–	–	–	–	–	–
CC1C(=O)CC(c2cccs2)N(N=O)C1c1cccs1 (stereo unspecified)	88.5 µM	> 100 µM	> 79.5 µM	> 59.1 µM	–	–	> 100 µM	> 100 µM	> 100 µM	> 92.3 µM	–	–	–	–	–	–	–	–	–	–
O=C1c2cccnc2C(=O)c2c1c(C(=O)OCCN1CCCCC1)c1ccccn21	0.0767 µM	2.02 µM	2.81 µM	1.71 µM	0.0534	0.714	0.179 µM	0.424 µM	0.0291 µM	0.224 µM	0.00575	0.0057	0.198	0.172	0.12	0.0129	0.0189	0.0183	0.0847	0.0909
CCN(CC)CC[n+]1ccc2c(C)c3[nH]c4ccc(O)cc4c3c(C)c2c1	34.5 µM and 80.6 µM	72.6 µM and 73.8 µM	57.9 µM and 51.9 µM	41.1 µM and > 67.5 µM	16.5	14.2	9.12 µM and 11.1 µM	19.3 µM and 22.3 µM	25.1 µM and 22.5 µM	32 µM and 54.2 µM	1.74	2.45	–	6.62	12.6	–	–	0.624	3.91	20.8
S=c1c2[nH]cnc2ncn1CCSC1=NC=NC2=NC=NC21 (stereo unspecified)	> 100 µM	> 100 µM	> 100 µM	> 100 µM	> 100	> 100	> 100 µM	> 100 µM	> 100 µM	> 100 µM	–	–	–	–	–	–	–	–	–	–
CC(C)(C)c1ccc2c(c1)C#Cc1cc(C(C)(C)C)ccc1OCCCO2	> 100 µM	> 100 µM	> 100 µM	> 100 µM	> 100	> 100	> 100 µM	> 100 µM	> 100 µM	> 100 µM	–	–	–	–	–	–	–	–	–	–
CNC1Cc2c[nH]c3cccc(c23)C12C=C(C)C(=O)O2 (stereo unspecified)	> 100 µM	> 100 µM	> 100 µM	> 100 µM	> 100	> 100	> 100 µM	> 100 µM	> 100 µM	> 100 µM	–	–	–	–	–	–	–	–	–	–
NC(CCOCCP(=O)(O)CCC1C=CC=CC1)C(=O)O (stereo unspecified)	> 100 µM	> 100 µM	> 100 µM	> 100 µM	> 100	> 100	> 100 µM	–	> 100 µM	> 100 µM	–	–	–	–	–	–	–	–	–	–
CCOC(=O)CCC(C(=O)OCC)n1nc2ccc(Nc3c(C)[n+]([O-])c4cc(F)c(OCC)cc4[n+]3[O-])cc2n1 (stereo unspecified)	> 100 µM	> 100 µM	> 100 µM	> 100 µM	> 100	> 100	62.7 µM	> 100 µM	> 100 µM	> 100 µM	–	–	–	–	–	–	–	–	–	–
CSc1nc(CO)c(CO)n1C	> 100 µM	> 100 µM	> 100 µM	> 100 µM	–	–	> 100 µM	–	> 100 µM	> 100 µM	–	–	–	–	–	–	–	–	–	–
Cc1[nH]c(=O)[nH]c(=O)c1/C=C/C(=O)NC(CO)CS(=O)CS(C)=O (stereo unspecified)	125 µM	483 µM	31.1 µM	515 µM	–	–	39.6 µM	57.9 µM	43.7 µM	59.2 µM	–	–	–	–	–	–	–	–	–	–
